Like-named read-outs stand apart in the source and are kept apart here.
Tests used:
Type in all cases: cell-based
[1] = test system: Naegleria fowleri trophozoites; assay: CellTiter-Glo 2.0 trophocidal assay, N. fowleri
Protocol: Pathogenic Naegleria fowleri (ATCC 30215), a clinical isolate obtained from a child in Adelaide, Australia, that died of PAM in 1969 was previously purchased from the American Type Culture Collection (ATCC). Trophozoites were routinely grown axenically at 34 °C in Nelson’s complete medium (NCM) in non-vented 75 cm^2 tissue culture flasks (Olympus, El Cajon, CA, USA), until the cells were 80–90% confluent. For sub-culturing, cells were placed on ice to detach the cells from the culture flasks. The cells were collected by centrifugation at 4000 rpm at 4 °C. Complete NCM media is produced by the addition of 10% FBS and 125 μg of penicillin/streptomycin antibiotics.
The trophocidal activity of compounds was assessed using the CellTiter-Glo 2.0 luminescent viability assay (Promega, Madison, WI, USA), as previously described. Trophozoites were routinely cultured as described above and only logarithmic trophozoites were used. In brief, B. mandrillaris, N. fowleri, or A. castellanii trophozoites cultured in their corresponding media were seeded at 16,000, 3000, or 1440 cells/well into white 96-well plates (Costar 3370), respectively. Initially all compounds were assessed in a single-point drug screen at 10 and 1 μM, as previously described. […] Control wells were supplemented with 0.1% (10 μM screening plate) or 0.01% (1 μM screening plate) DMSO, as the negative controls, or 12.5 μM of chlorhexidine, as the positive control. Following the single-point assays at 10 and 1 µM, we prioritized compounds for progression to IC50 determinations. […] We used this process to reduce the number of potential false positives. Drugs were cherry-picked, dissolved in the media specific to each parasite, and assessed in twofold serial dilutions from the highest concentration of 10 μM. All assays were incubated at each of the parasites’ representative growth temperatures, described above, for 72 h. At the 72 h time point, 25 μL of CellTiter-Glo 2.0 reagent was added to all wells of the 96-well plates using the Biomek NX^P automated workstation. The plates were protected from light and contents were mixed using an orbital shaker at 300 rpm at room temperature for 2 min to induce cell lysis. After shaking, the plates were equilibrated at room temperature for 10 min to stabilize the luminescent signal. The adenosine triphosphate (ATP) luminescent signal (relative light units; RLUs) was measured at 490 nm with a SpectraMax I3X plate reader (Molecular Devices, Sunnyvale, CA, USA). Drug inhibitory concentration (IC50) curves were generated using total ATP RLUs, where controls were calculated as the average of replicates using the Levenberg–Marquardt algorithm, using DMSO as the normalization control, as defined in Collaborative Drug Discovery Inc. (CDD) Vault (Burlingame, CA, USA). Values reported are from a minimum of two biological replicates with standard deviations.

[2] = test system: A549 human lung carcinoma cells; assay: MTS cytotoxicity counter-screen of reconfirmed hits
Protocol: Cytotoxicity of the reconfirmed hits was determined by using the CellTiter 96® AQueous One Solution Cell Proliferation Assay (Promega, Madison, WI) on A549 human lung carcinoma cells. A549 cells were seeded at a concentration of 1.6 × 10^4 cells/mL in 96-well tissue culture plates (Corning, NY, USA), in the presence of serially diluted active hits against B. mandrillaris, N. fowleri, or A. castellanii. Positive control wells contained cells and media; negative control wells contained 0.1% DMSO. Cells were grown in F12K medium supplemented with 10% FBS and 1% gentamycin (all supplied from Fisher Scientific, Atlanta, GA, USA). The inhibitor concentration started at 10 µM and was diluted in doubling dilutions to assess cytotoxicity in comparison to the respective free-living amoeba. Total volume of each well was 100 µL and plates were incubated at 37 °C, 5% CO2 for 72 h. Next, 4 h before the time-point, 20 µL of MTS (Promega, Madison, WI, USA) was added to each well. Inhibition of A549 growth was assessed at the 72 h time-point measuring the optical density (OD) values at 490 nm using a SpectraMax I3X plate reader (Molecular Devices, Sunnyvale, CA, USA). Curve fitting using non-linear regression was carried out using the average of replicates and the Levenberg–Marquardt algorithm, using DMSO as the normalization control, as defined in CDD Vault (Burlingame, CA, USA).

[3] = test system: Acanthamoeba castellanii trophozoites; assay: CellTiter-Glo 2.0 trophocidal assay, A. castellanii; conditions: for IC50: CTG method, 72 h, duplicate twofold serial dilutions from 10 µM, mean ± SD; for Selectivity Index (A549 IC50/A. castellanii IC50): SI = (IC50 A549)/(IC50 Amoeba)
Protocol: This isolate was also purchased from ATCC. Trophozoites were routinely grown axenically at 27 °C in Protease Peptone-Glucose Media (PG) in non-vented 75 cm^2 tissue culture flasks (Olympus, El Cajon, CA, USA), until the cells were 80–90% confluent. For sub-culturing, cells were mechanically harvested to detach the cells from the culture flasks. The cells were collected by centrifugation at 4000 rpm at 4 °C.
The trophocidal activity of compounds was assessed using the CellTiter-Glo 2.0 luminescent viability assay (Promega, Madison, WI, USA), as previously described. Trophozoites were routinely cultured as described above and only logarithmic trophozoites were used. […] Initially all compounds were assessed in a single-point drug screen at 10 and 1 μM, as previously described. […] We used this process to reduce the number of potential false positives. Drugs were cherry-picked, dissolved in the media specific to each parasite, and assessed in twofold serial dilutions from the highest concentration of 10 μM. All assays were incubated at each of the parasites’ representative growth temperatures, described above, for 72 h. At the 72 h time point, 25 μL of CellTiter-Glo 2.0 reagent was added to all wells of the 96-well plates using the Biomek NX^P automated workstation. The plates were protected from light and contents were mixed using an orbital shaker at 300 rpm at room temperature for 2 min to induce cell lysis. After shaking, the plates were equilibrated at room temperature for 10 min to stabilize the luminescent signal. The adenosine triphosphate (ATP) luminescent signal (relative light units; RLUs) was measured at 490 nm with a SpectraMax I3X plate reader (Molecular Devices, Sunnyvale, CA, USA). Drug inhibitory concentration (IC50) curves were generated using total ATP RLUs, where controls were calculated as the average of replicates using the Levenberg–Marquardt algorithm, using DMSO as the normalization control, as defined in Collaborative Drug Discovery Inc. (CDD) Vault (Burlingame, CA, USA). Values reported are from a minimum of two biological replicates with standard deviations.

[4] = Homo sapiens, A549, MTS assay, 72 h, doubling dilutions from 10 µM, read-out: A549 Mean IC50
[5] = CTG method, 72 h, duplicate twofold serial dilutions from 10 µM, mean ± SD; read-out: N. fowleri Mean IC50 (µM) ± SD
[6] = MTS assay, 72 h, doubling dilutions from 10 µM, read-out: A549 Mean IC50
[7] = Naegleria fowleri, 72 h, CTG method, 72 h, duplicate twofold serial dilutions from 10 µM, mean ± SD; read-out: N. fowleri Mean IC50 (µM) ± SD

| Structure (SMILES) | Selectivity Index (A549 IC50/N. fowleri IC50) ([1]; SI = (IC50 A549)/(IC50 Amoeba)) | IC50 [2, 4] [µM] | IC50 [1, 5] [µM] | IC50 [2, 6] [µM] | IC50 [1, 7] [µM] | also measured |
| --- | --- | --- | --- | --- | --- | --- |
| Cn1cncc1[C@@](N)(c1ccc(Cl)cc1)c1ccc2c(c1)c(-c1cccc(Cl)c1)cc(=O)n2C [Tipifarnib] | 6.50 | 8 | – | – | – | IC50 ([1]; Naegleria fowleri, 72 h, read-out: N. fowleri Mean IC50 (µM) ± SD): 1.23 ± 0.27 µM |
| CN1c2ccc(Cl)cc2N(c2ccccc2)C(=O)c2cn(Cc3ccc(CN4CCOCC4)cc3)nc21 [MMV1782222] | – | – | 5.4 | > 10 | – | – |
| N#C/C(=C1/SC[C@@H](c2ccc(Cl)cc2Cl)S1)n1ccnc1 [Luliconazole] | ≥556 | > 10 | – | – | 0.02 ± 0.01 | Selectivity Index (A549 IC50/N. fowleri IC50) ([1]; SI = (IC50 A549)/(IC50 Amoeba); listed as luliconazole): ≥ 10; potency against N. fowleri, in words ([1]; dose-response, CTG): nanomolar potency |
| CN(C)[C@@H]1C(O)=C(C(N)=O)C(=O)[C@@]2(O)C(O)=C3C(=O)c4c(O)c(NC(=O)CN5CCCC5)cc(F)c4C[C@H]3C[C@@H]12 [Eravacycline] | ≥3.64 | > 10 | – | – | 2.75 ± 0.35 | – |
| O=[N+]([O-])/C(Br)=C/c1ccc(Br)o1 [Furvina] | – | – | – | > 10 | – | IC50 [3]: 4.2 ± 0.85 µM; IC50 ([3]; listed as furvina): ≤ 10 µM |
| COc1ccc2sc3c(c2c1)NC(C)CNC3=O (centres unmarked) [MMV1782115] | – | – | 9.35 ± 0.35 | 5.8 | – | – |
| Cc1cc(C2CCCCC2)n(O)c(=O)c1 [Ciclopirox] | ≥1.33 | > 10 | – | – | 7.5 ± 1.4 | – |
| CNCC(=O)OCc1cccnc1N(C)C(=O)OC(C)[n+]1cnn(C[C@](O)(c2cc(F)ccc2F)[C@@H](C)c2nc(-c3ccc(C#N)cc3)cs2)c1 (some centres unmarked) [Isavuconazonium] | – | > 10 | – | – | – | IC50 ([3]; Acanthamoeba castellanii): 0.09 ± 0.02 µM; Selectivity Index (A549 IC50/A. castellanii IC50) [3]: ≥105; Selectivity Index (A549 IC50/A. castellanii IC50) ([3]; listed as isavuconazonium): ≥ 10; potency against A. castellanii, in words ([3]; dose-response, CTG): nanomolar potency |
| Nc1nc(F)nc2c1ncn2[C@@H]1O[C@H](CO)[C@@H](O)[C@@H]1O [Fludarabine] | <2.83 | – | – | – | – | IC50 ([1]; Naegleria fowleri; CTG method, 72 h, duplicate twofold serial dilutions from 10 µM, mean ± SD; read-out: N. fowleri Mean IC50 (µM) ± SD): 0.11 ± 0.03 µM; potency against N. fowleri, in words ([1]; dose-response, CTG): nanomolar potency; IC50 ([2]; Homo sapiens, A549, 72 h, read-out: A549 Mean IC50 (µM)): < 0.31 µM |
| Oc1c(C(Nc2nc3ccccc3s2)c2ccc(OC(F)F)cc2)ccc2cccnc12 (centres unmarked) [MMV019724] | – | – | 6 ± 0.7 | 6.2 | – | – |
| CCOC(=O)Nc1cc(NC(C)CC(C)CN(CC)CC)c2nc(-c3ccccc3)c(-c3ccccc3)nc2n1 (centres unmarked) [MMV1633967] | – | – | 8.2 ± 1 | > 10 | – | – |
| CC[C@@]1(O)C(=O)OCc2c1cc1n(c2=O)Cc2cc3c([N+](=O)[O-])cccc3nc2-1 [Rubitecan] | 0.20 | 0.47 | – | – | 2.3 ± 0.2 | – |
| C=C[C@]1(C)C[C@@H](OC(=O)CS[C@@H]2C[C@H]3CC[C@@H](C2)N3C)[C@]2(C)[C@H](C)CC[C@]3(CCC(=O)[C@H]32)[C@@H](C)[C@@H]1O [Retapamulin] | ≥8.97 | > 10 | 1.12 ± 0.28 | – | – | IC50 ([1]; CTG method, 72 h, duplicate twofold serial dilutions from 10 µM, mean ± SD; listed as repatamulin; read-out: N. fowleri Mean IC50 (µM) ± SD): ≤ 10 µM |
| NC(=S)N/N=C/c1ncccc1N [Triapine] | 0.88 | 3.5 | – | – | 4 ± 0.1 | – |
| C=CCN(C(=O)OCc1ccc([N+](=O)[O-])cc1)C1CCN(CC[C@](C)(CN(C)S(=O)(=O)c2ccccc2)c2ccccc2)CC1 [MMV1782214] | – | – | 7.9 | > 10 | – | – |
| C[C@H](c1cccc2ccccc12)N(C)Cc1ccccc1 [MMV1782221] | – | – | – | > 10 | – | – |
| NC[C@H]1OB(O)c2c(OCCCO)cccc21 [Epetraborole] | ≥3.85 | > 10 | – | – | 2.6 ± 0.3 | – |
| O=c1cc(NCCCN[C@@H]2CCOc3c(Br)cc(Br)cc32)[nH]c2ccsc12 [MMV1578884] | ≥128 | > 10 | – | – | 0.08 ± 0.02 | Selectivity Index (A549 IC50/N. fowleri IC50) ([1]; SI = (IC50 A549)/(IC50 Amoeba); listed as CRS-3123): ≥ 10; potency against N. fowleri, in words ([1]; dose-response, CTG): nanomolar potency |
| O=C(Nc1cccc(C2=NCCN2)c1)c1ccc(-c2ccc(C(=O)Nc3cccc(C4=NCCN4)c3)cc2)cc1 [MMV1580853] | – | – | 4.95 ± 2.55 | > 10 | – | – |
| OCCC#Cc1nc(-c2ccc(F)cc2)c(-c2ccncc2)n1CCCc1ccccc1 [RWJ-67657] | ≥1.87 | > 10 | – | – | 5.35 ± 0.35 | – |
| Nc1nc(Nc2ccc3nc(-c4ccc(F)cc4)cc(N)c3c2)cc(-c2ccccc2)n1 [MMV1593541] | – | – | 5.3 ± 0.6 | 2.3 | – | – |
| Nc1nc(N)c2c(Sc3ccccc3)cccc2n1 [MMV021759] | – | – | – | > 10 | – | – |
| CCC(C)NCC(O)Cn1c2ccc(Cl)cc2c2cc(Cl)ccc21 (centres unmarked) [MMV1578570] | – | – | 6.4 ± 0.9 | > 10 | – | – |
| CC[C@H]1OC(=O)[C@H](C)[C@@H](O[C@H]2C[C@@](C)(OC)[C@@H](O)[C@H](C)O2)[C@H](C)[C@@H](O[C@@H]2O[C@H](C)C[C@H](N(C)C)[C@H]2O)[C@](C)(O)C[C@@H](C)C(=O)[C@H](C)[C@@H](O)[C@]1(C)O [Erythromycin] | ≥42.6 | > 10 | – | – | 0.24 ± 0.02 | Selectivity Index (A549 IC50/N. fowleri IC50) ([1]; SI = (IC50 A549)/(IC50 Amoeba); listed as erythromycin): ≥ 10; potency against N. fowleri, in words ([1]; dose-response, CTG): nanomolar potency |
| Cc1cccc(C)c1C(=O)Nc1nc(-c2ccccn2)cc2ccccc12 [MMV1581558] | – | – | – | > 10 | – | – |

From PMC7344389, “Discovery of Anti-Amoebic Inhibitors from Screening the MMV Pandemic Response Box on Balamuthia mandrillaris, Naegleria fowleri, and Acanthamoeba castellanii” (Pathogens, 2020)
